# According to US7034036B2, “Inhibitors of ABC drug transporters at the blood-brain barrier” (Pain Therapeutics, Inc., priority 2000, dated 2006):
# Entries after “also recorded” stand apart in the source; their conditions may differ.
# How the values were obtained:
# PGP1a = test: Vanadate-sensitive PGP ATPase activity in PGP membranes; type: biochemical
# Procedure: The test substances were incubated in the membranes and supplemented with MgATP, with and without sodium orthovanadate present. Orthovanadate inhibits PGP by trapping MgADP in the nucleotide binding site. Thus, the ATPase activity measured in the presence of orthovanadate represents non-PGP ATPase activity and was subtracted from the activity generated without orthovanadate to yield vanadate-sensitive ATPase activity.
# ATPase assays were conducted in 96-well microtiter plates. A 0.06 ml reaction mixture containing 40 μg PGP membranes, test substance, and 4 mM MgATP, in buffer containing 50 mM Tris-MES, 2 mM EGTA, 50 mM KCl, 2 mM dithiothreitol, and 5 mM sodium azide, plus organic solvent was incubated at 37° C. for 20 minutes. […] Identical reaction mixtures containing 100 μM sodium orthovanadate were assayed in parallel. The reactions were stopped by the addition of 30 μl of 10% SDS+Antifoam A. The incubations were followed with addition of 200 μl of 35 mM Ammonium Molybdate in 15 mM Zinc Acetate:10% Ascorbic Acid (1:4) and incubated for an additional 20 minutes at 37° C. Additionally, 0.06 ml aliquots of potassium phosphate standards prepared in the buffer described above, were incubated in the plates containing the test and control substances, with SDS and detection reagent added. The liberation of inorganic phosphate was detected by its absorbance at 800 nm and quantitated by comparing the absorbance to a phosphate standard curve. The concentration dependence of the PGP was analyzed for evidence of saturation of PGP-ATPase activity, and apparent kinetic parameters were calculated by non-linear regression.
# mice [1] = test: Tail flick anti-nociception, naltrexone begun at day 6 in mice dosed daily with morphine (Groups A, B); type: in vivo; details: morphine 3 mg/kg daily
# Procedure: 40 male mice were randomized into 5 groups of eight. All mice were administered single 3 mg/kg morphine daily (b.i.d.), beginning on Day 1.
# In a second series of experiments, 40 female mice were randomized into 5 groups of eight. All mice were administered single 3 mg/kg morphine daily (b.i.d.), beginning on Day 1.
# 3 mg/kg of morphine was administered as a single bolus dose to each mouse on group 1 on a daily basis. Mice in Group 2 were also administered 3 mg/kg morphine daily.
# mice [2] = test: Tail flick anti-nociception, naltrexone given with morphine from day 1 (Groups C, D, combined analysis); type: in vivo; parameters: Enhancement of Latency (tail flick) / Enhancement of Latency by Naltrexone (tail flick): unit not given here
# Procedure: In a third series of experiments, 40 male mice were randomized into 5 groups of eight. All mice were administered single 3 mg/kg morphine daily (b.i.d.), beginning on Day 1.
# In a final series of experiments, 40 female mice were randomized into 5 groups of eight. All mice were administered single 3 mg/kg morphine daily (b.i.d.), beginning on Day 1.
smiles,measurement,setting,value
"O=C1CC[C@@]2(O)[C@H]3Cc4ccc(O)c5c4[C@@]2(CCN3CC2CC2)[C@H]1O5 [Naltrexone, naltrexone]",Vanadate-sensitive ATPase Activity,PGP1a; 100 μM,4.6 nmol/mg/min
same,Inhibition of the ATPase associated with PGP1a,PGP1a; semi-quantitative assay,shown to inhibit
same,Naltrexone effect on tail flick latency,"mice [1]; female mice, naltrexone 3-3000 ng/kg b.i.d. from day 6, Days 6, 8, 10",significantly different from zero in enhancing latency
same,Effect on morphine tolerance,"mice [1]; morphine-tolerant mice, naltrexone 3 ng/kg daily from Day 6",broke the tolerance; also recorded: breaks tolerance
same,Enhancement of Latency by Naltrexone (tail flick),"mice [2]; Table 15, combined analysis (title prints Female Mice), Group 2: morphine 3 mg/kg + naltrexone 3 ng/kg b.i.d., Day 1",12.8
same,Enhancement of Latency by Naltrexone (tail flick),"mice [2]; Table 15, combined analysis (title prints Female Mice), Group 2: morphine 3 mg/kg + naltrexone 3 ng/kg b.i.d., Day 3",9.3
same,Enhancement of Latency by Naltrexone (tail flick),"mice [2]; Table 15, combined analysis (title prints Female Mice), Group 2: morphine 3 mg/kg + naltrexone 3 ng/kg b.i.d., Day 5",5.9
same,Enhancement of Latency by Naltrexone (tail flick),"mice [2]; Table 15, combined analysis (title prints Female Mice), Group 2: morphine 3 mg/kg + naltrexone 3 ng/kg b.i.d., Day 8",5.8
same,Enhancement of Latency by Naltrexone (tail flick),"mice [2]; Table 15, combined analysis (title prints Female Mice), Group 2: morphine 3 mg/kg + naltrexone 3 ng/kg b.i.d., Day 10",3.5
same,Enhancement of Latency by Naltrexone (tail flick),"mice [2]; Table 15, combined analysis (title prints Female Mice), Group 3: morphine 3 mg/kg + naltrexone 30 ng/kg b.i.d., Day 1",12.4
same,Enhancement of Latency by Naltrexone (tail flick),"mice [2]; Table 15, combined analysis (title prints Female Mice), Group 3: morphine 3 mg/kg + naltrexone 30 ng/kg b.i.d., Day 3",10.0
same,Enhancement of Latency by Naltrexone (tail flick),"mice [2]; Table 15, combined analysis (title prints Female Mice), Group 3: morphine 3 mg/kg + naltrexone 30 ng/kg b.i.d., Day 5",7.2
same,Enhancement of Latency by Naltrexone (tail flick),"mice [2]; Table 15, combined analysis (title prints Female Mice), Group 3: morphine 3 mg/kg + naltrexone 30 ng/kg b.i.d., Day 8",4.9
same,Enhancement of Latency by Naltrexone (tail flick),"mice [2]; Table 15, combined analysis (title prints Female Mice), Group 3: morphine 3 mg/kg + naltrexone 30 ng/kg b.i.d., Day 10",6.6
same,Enhancement of Latency by Naltrexone (tail flick),"mice [2]; Table 15, combined analysis (title prints Female Mice), Group 4: morphine 3 mg/kg + naltrexone 300 ng/kg b.i.d., Day 1",15.6
same,Enhancement of Latency by Naltrexone (tail flick),"mice [2]; Table 15, combined analysis (title prints Female Mice), Group 4: morphine 3 mg/kg + naltrexone 300 ng/kg b.i.d., Day 3",12.7
same,Enhancement of Latency by Naltrexone (tail flick),"mice [2]; Table 15, combined analysis (title prints Female Mice), Group 4: morphine 3 mg/kg + naltrexone 300 ng/kg b.i.d., Day 5",6.8
same,Enhancement of Latency by Naltrexone (tail flick),"mice [2]; Table 15, combined analysis (title prints Female Mice), Group 4: morphine 3 mg/kg + naltrexone 300 ng/kg b.i.d., Day 8",4.8
same,Enhancement of Latency by Naltrexone (tail flick),"mice [2]; Table 15, combined analysis (title prints Female Mice), Group 4: morphine 3 mg/kg + naltrexone 300 ng/kg b.i.d., Day 10",6.0
same,Enhancement of Latency by Naltrexone (tail flick),"mice [2]; Table 15, combined analysis (title prints Female Mice), Group 5: morphine 3 mg/kg + naltrexone 3000 ng/kg b.i.d., Day 1",12.9
same,Enhancement of Latency by Naltrexone (tail flick),"mice [2]; Table 15, combined analysis (title prints Female Mice), Group 5: morphine 3 mg/kg + naltrexone 3000 ng/kg b.i.d., Day 3",11.3
same,Enhancement of Latency by Naltrexone (tail flick),"mice [2]; Table 15, combined analysis (title prints Female Mice), Group 5: morphine 3 mg/kg + naltrexone 3000 ng/kg b.i.d., Day 5",7.7
same,Enhancement of Latency by Naltrexone (tail flick),"mice [2]; Table 15, combined analysis (title prints Female Mice), Group 5: morphine 3 mg/kg + naltrexone 3000 ng/kg b.i.d., Day 8",6.2
same,Enhancement of Latency by Naltrexone (tail flick),"mice [2]; Table 15, combined analysis (title prints Female Mice), Group 5: morphine 3 mg/kg + naltrexone 3000 ng/kg b.i.d., Day 10",7.0
same,Enhancement of Latency by Naltrexone (tail flick),"mice [2]; female mice, Group 2: morphine 3 mg/kg + naltrexone 3 ng/kg b.i.d. from day 1, Day 1",12.2
same,Enhancement of Latency by Naltrexone (tail flick),"mice [2]; female mice, Group 2: morphine 3 mg/kg + naltrexone 3 ng/kg b.i.d. from day 1, Day 3",11.0
same,Enhancement of Latency by Naltrexone (tail flick),"mice [2]; female mice, Group 2: morphine 3 mg/kg + naltrexone 3 ng/kg b.i.d. from day 1, Day 5",4.3
same,Enhancement of Latency by Naltrexone (tail flick),"mice [2]; female mice, Group 2: morphine 3 mg/kg + naltrexone 3 ng/kg b.i.d. from day 1, Day 7",6.1
same,Enhancement of Latency by Naltrexone (tail flick),"mice [2]; female mice, Group 2: morphine 3 mg/kg + naltrexone 3 ng/kg b.i.d. from day 1, Day 10",4.4
same,Enhancement of Latency by Naltrexone (tail flick),"mice [2]; female mice, Group 2: morphine 3 mg/kg + naltrexone 3 ng/kg b.i.d. from day 1, Day 11, single bolus 10 μg/kg naltrexone in addition",−1.0
same,Enhancement of Latency by Naltrexone (tail flick),"mice [2]; female mice, Group 3: morphine 3 mg/kg + naltrexone 30 ng/kg b.i.d. from day 1, Day 1",12.4
same,Enhancement of Latency by Naltrexone (tail flick),"mice [2]; female mice, Group 3: morphine 3 mg/kg + naltrexone 30 ng/kg b.i.d. from day 1, Day 3",10.7
same,Enhancement of Latency by Naltrexone (tail flick),"mice [2]; female mice, Group 3: morphine 3 mg/kg + naltrexone 30 ng/kg b.i.d. from day 1, Day 5",6.9
same,Enhancement of Latency by Naltrexone (tail flick),"mice [2]; female mice, Group 3: morphine 3 mg/kg + naltrexone 30 ng/kg b.i.d. from day 1, Day 7",2.4
same,Enhancement of Latency by Naltrexone (tail flick),"mice [2]; female mice, Group 3: morphine 3 mg/kg + naltrexone 30 ng/kg b.i.d. from day 1, Day 10",9.3
same,Enhancement of Latency by Naltrexone (tail flick),"mice [2]; female mice, Group 3: morphine 3 mg/kg + naltrexone 30 ng/kg b.i.d. from day 1, Day 11, single bolus 10 μg/kg naltrexone in addition",−0.7
same,Enhancement of Latency by Naltrexone (tail flick),"mice [2]; female mice, Group 4: morphine 3 mg/kg + naltrexone 300 ng/kg b.i.d. from day 1, Day 1",15.0
same,Enhancement of Latency by Naltrexone (tail flick),"mice [2]; female mice, Group 4: morphine 3 mg/kg + naltrexone 300 ng/kg b.i.d. from day 1, Day 3",10.3
same,Enhancement of Latency by Naltrexone (tail flick),"mice [2]; female mice, Group 4: morphine 3 mg/kg + naltrexone 300 ng/kg b.i.d. from day 1, Day 5",1.9
